pKi: −log10 of the molar value. Where two headings read alike, the source gives them in different places. Values belong to the compound of their own block, whether it stands above or below them.
Experiments:
[1] = molecular target: T1, human adenosine A2A receptors (Homo sapiens, UniProt P29274); test: Adenosine receptor binding: binding affinities at hA2A receptors ([3H]CGS-21680 displacement); conditions: read-out: Binding Affinity hA2A-Ki
T1 construct: host or cells: HEK-293
Procedure: Adenosine Receptor Binding: Binding Affinities at hA2A Receptors
(§1) The resultant homogenate was kept for immediate use in the binding assay. Binding assays were performed in a total volume of 250 μL, containing [^3H]-CGS21680 (20.0 nM), membranes and additional drugs. Total binding was determined using drug dilution buffer (50 mM Tris-HCl pH 7.5, 10 mM MgCl2, 5% DMSO). Non-specific binding was determined using 300 μM CHA. […] Filters were left to dry overnight, and Microscint-0 scintillation fluid was then added to the filters. The filters were then left for at least 2 hours before the radioactivity was assessed using a Canberra Packard TopCount microplate scintillation counter.
To determine the free ligand concentration, three vials were counted with 25 μL of [^3H]CGS21680 containing 4 mL of Ultima-Gold MV scintillant on a Beckman LS6500 multi-purpose scintillation counter.
(§2) Data was analysed using a 4 parameter logistical equation and non-linear regression which yields affinity constants (pIC50), and slope parameters:
(§3) [formula] where E is the quantity of binding and [A] is the competitor concentration. The Ki is then determined using the Cheng-Prusoff equation: […]

[2] = molecular target: T2, human adenosine A3 receptors (Homo sapiens, UniProt P0DMS8); test: Adenosine receptor binding: binding affinities at hA3 receptors ([125I]-AB MECA displacement); conditions: for pKi: read-out: Binding Affinity hA3-Ki; for Binding Selectivity A3/A2a: ratio of Ki values
T2 construct: expressed in transfected cells; host or cells: CHO-K1
T2 sequence (P0DMS8 1-318): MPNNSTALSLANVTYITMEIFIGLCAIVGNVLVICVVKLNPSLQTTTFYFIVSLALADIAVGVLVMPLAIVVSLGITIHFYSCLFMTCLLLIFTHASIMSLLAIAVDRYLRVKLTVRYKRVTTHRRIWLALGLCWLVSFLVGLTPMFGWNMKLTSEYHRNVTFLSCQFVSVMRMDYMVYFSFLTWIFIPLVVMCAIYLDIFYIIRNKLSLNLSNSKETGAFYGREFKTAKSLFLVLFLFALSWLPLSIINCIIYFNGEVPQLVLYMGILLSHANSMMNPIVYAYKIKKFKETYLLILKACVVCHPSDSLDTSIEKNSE
Procedure: [formula] Adenosine Receptor Binding: Binding Affinities at hA3 Receptors
The resultant homogenate was kept for immediate use in the binding assay.
Total binding was determined using drug dilution buffer (50 mM Tris-HCl pH 7.5, 10 mM MgCl2, 5% DMSO). Non-specific binding was determined using 10 μM IB-MECA. […] Filters were left to dry overnight, and Microscint-0 scintillation fluid was then added to the filters. The filters were then left for at least 2 hours before the radioactivity was assessed using a Canberra Packard TopCount microplate scintillation counter.
as §2, §3

hA2B receptors = molecular target: T3, hA2B receptors (Homo sapiens, UniProt P29275); test: Adenosine receptor binding: binding affinities at hA2B receptors ([3H]-ZM241385 displacement); conditions: for pKi: read-out: Binding Affinity hA2B-Ki; for Binding Selectivity A2b/A2a: ratio of Ki values
T3 construct: host or cells: HEK-293
T3 sequence (P29275 1-332): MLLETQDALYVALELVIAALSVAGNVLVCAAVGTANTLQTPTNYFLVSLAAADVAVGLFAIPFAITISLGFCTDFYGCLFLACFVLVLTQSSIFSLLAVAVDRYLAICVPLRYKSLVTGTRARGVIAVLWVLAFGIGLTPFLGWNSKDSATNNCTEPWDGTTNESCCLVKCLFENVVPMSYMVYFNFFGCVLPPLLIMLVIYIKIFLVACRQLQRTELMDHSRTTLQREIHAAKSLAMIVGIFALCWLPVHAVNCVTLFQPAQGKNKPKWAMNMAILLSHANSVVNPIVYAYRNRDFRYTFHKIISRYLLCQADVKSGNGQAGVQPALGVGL

[3] = molecular target: T4, human adenosine A1 receptors (Homo sapiens, UniProt P30542); test: Adenosine receptor binding: binding affinities at hA1 receptors ([3H]DPCPX displacement); conditions: for pKi: read-out: Binding Affinity hA1-Ki; for Binding Selectivity A1/A2a: ratio of Ki values
T4 construct: expressed in transfected cells; host or cells: CHO-K1
T4 sequence (P30542 1-326): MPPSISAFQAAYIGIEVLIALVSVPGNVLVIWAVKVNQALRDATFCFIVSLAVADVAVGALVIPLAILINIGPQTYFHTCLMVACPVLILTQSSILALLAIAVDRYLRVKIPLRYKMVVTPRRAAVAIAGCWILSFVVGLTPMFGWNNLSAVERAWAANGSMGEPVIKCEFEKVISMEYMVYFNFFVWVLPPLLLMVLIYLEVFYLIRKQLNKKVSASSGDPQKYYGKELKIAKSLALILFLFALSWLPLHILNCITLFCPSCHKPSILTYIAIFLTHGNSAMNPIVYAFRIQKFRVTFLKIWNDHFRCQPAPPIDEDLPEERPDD
Procedure: Adenosine Receptor Binding: Binding Affinities at hA1 Receptors
The resultant homogenate was kept for immediate use in the binding.
as §1, with “Binding” for “The resultant homogenate was kept for immediate use in the binding assay. Binding”, “[^3H]-DPCPX (3.0” for “[^3H]-CGS21680 (20.0”, “pH:7.5,” for “pH 7.5,”, “N6-cyclohexyladenosine (CHA).” for “CHA.”
To determine the free ligand concentration, three vials were counted with 25 μL of [^3H]DPCPX containing 4 mL of Ultima-Gold MV scintillant on a Beckman LS6500 multi-purpose scintillation counter.
as §2, §3

[4] = system: haloperidol-induced deficits in locomotor activity in mice; test: Haloperidol-induced hypolocomotion model (HaloLMA); type: in vivo; conditions: female TO mice, intraperitoneal, haloperidol 0.2 mg/kg
Description: Evaluation of Potential Anti-Parkinsonian Activity In Vivo: Haloperidol-Induced Hypolocomotion Model
This approach is also considered a valid method for screening drugs with potential antiparkinsonian effects. Thus, the ability of novel adenosine antagonists to block haloperidol-induced deficits in locomotor activity in mice can be used to assess both in vivo and potential antiparkinsonian efficacy.
Female TO mice (25-30 g) are used for all experiments. Animals are housed in groups of 8 (cage size-40 cm (width) by 40 cm (length) by 20 cm (height)) under 12 hour light/dark cycle (lights on 08:00), in a temperature (20±2° C.) and humidity (55±15%) controlled environment. Animals have free access to food and water, and are allowed at least 7 days to acclimatize after delivery before experimental use.
Liquid injectable haloperidol (e.g., 1 mL Serenance ampoules from Baker Norton, Harlow, Essex, each containing haloperidol BP 5 mg) are diluted to a final concentration of 0.02 mg/mL using saline. Test compounds are typically prepared as aqueous suspensions in 8% Tween. All compounds are administered intraperitoneally in a volume of 10 mL/kg.
1.5 hours before testing, mice are administered 0.2 mg/kg haloperidol, a dose that reduces baseline locomotor activity by at least 50%. Test substances are typically administered 5-60 minutes prior to testing. The animals are then placed individually into clean, clear polycarbonate cages (20 cm (width) by 40 cm (length) by 20 cm (height), with a flat perforated, Perspex lid). Horizontal locomotor activity is determined by placing the cages within a frame containing a 3 by 6 array of photocells linked to a computer, which tabulates beam breaks. Mice are left undisturbed to explore for 1 hour, and the number of beams breaks made during this period serves as a record of locomotor activity which is compared with data for control animals for statistically significant differences.
A number of the exemplified compounds of the present invention were tested in this assay and the results obtained are shown in Table 3, below.

[5] = Table 1, [3H]CGS-21680 displacement, HEK-293 membranes
[6] = Table 1, [125I]-AB MECA displacement, CHO-K1 membranes
[7] = Table 1, [3H]-ZM241385 displacement, HEK-293 membranes
[8] = Table 1, [3H]DPCPX displacement, CHO-K1 membranes
[9] = Table 2, comparative compounds of WO 02/055083

T1 sequence (P29274 whole entry): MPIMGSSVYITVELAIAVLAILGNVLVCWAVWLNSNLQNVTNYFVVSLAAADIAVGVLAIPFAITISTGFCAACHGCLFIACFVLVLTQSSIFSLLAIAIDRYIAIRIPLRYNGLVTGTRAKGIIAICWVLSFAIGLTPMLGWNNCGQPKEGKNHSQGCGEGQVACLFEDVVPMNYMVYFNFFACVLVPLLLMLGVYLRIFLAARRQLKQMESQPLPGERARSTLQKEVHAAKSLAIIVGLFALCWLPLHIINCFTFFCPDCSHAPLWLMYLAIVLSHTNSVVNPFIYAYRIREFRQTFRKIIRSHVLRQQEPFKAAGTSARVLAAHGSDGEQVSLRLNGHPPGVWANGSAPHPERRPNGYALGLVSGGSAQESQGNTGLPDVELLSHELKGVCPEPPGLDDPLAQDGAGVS

Structure (SMILES): COc1cccc(-c2nc(N)nc3c2nnn3Cc2cccc(C3(O)CCC3)n2)c1 [Example 17, 7-(3-methoxyphenyl)-3-(6-[1-hydroxycyclobutyl]pyrid-2-ylmethyl)-3H-[1,2,3]triazolo[4,5-d]pyrimidin-5-amine]
- pKi [1, 5]: 8.00
- pKi [2, 6]: 5.71
- Binding Selectivity A3/A2a ([2]; Table 1): 196
- pKi (hA2B receptors; [7]): 5.33
- Binding Selectivity A2b/A2a (hA2B receptors; Table 1): 472
- pKi [3, 8]: 6.41
- Binding Selectivity A1/A2a ([3]; Table 1): 39

Structure (SMILES): Nc1nc(-c2ccccc2)c2nnn(Cc3cccc(C4(O)CCC4)n3)c2n1 [Example 11, 7-phenyl-3-(6-[1-hydroxycyclobutyl]pyrid-2-ylmethyl)-3H-[1,2,3]triazolo[4,5-d]pyrimidin-5-amine]
- pKi [1, 5]: 8.28
- pKi [2, 6]: 5.37
- Binding Selectivity A3/A2a ([2]; Table 1): 836
- pKi (hA2B receptors; [7]): 5.49
- Binding Selectivity A2b/A2a (hA2B receptors; Table 1): 634
- pKi [3, 8]: 6.49
- Binding Selectivity A1/A2a ([3]; Table 1): 62

Structure (SMILES): Cc1ccc(-c2nc(N)nc3c2nnn3Cc2cccc(CO[C@H]3CCOC3)n2)o1 [Example 1, S-7-(5-methylfuran-2-yl)-3-(6-[tetrahydrofuran-3-yl]oxymethylpyrid-2-ylmethyl)-3H-[1,2,3]triazolo[4,5-d]pyrimidin-5-amine]
- In Vivo activity HaloLMA MED [4]: 0.3 mg/kg

Structure (SMILES): N#Cc1cccc(-c2nc(N)nc3c2nnn3Cc2cccc(C3(O)CCC3)n2)c1 [Example 23, 7-(3-cyanophenyl)-3-(6-[1-hydroxycyclobutyl]pyrid-2-ylmethyl)-3H-[1,2,3]triazolo[4,5-d]pyrimidin-5-amine]
- pKi [1, 5]: 7.83
- pKi (hA2B receptors; [7]): 5.17
- Binding Selectivity A2b/A2a (hA2B receptors; Table 1): 462
- pKi [3, 8]: 5.88
- Binding Selectivity A1/A2a ([3]; Table 1): 90

Structure (SMILES): N#Cc1cccc(-c2nc(N)nc3c2nnn3Cc2cccc(C3(O)CCCC3)n2)c1 [Example 21, 7-(3-cyanophenyl)-3-(6-[1-hydroxy-1-cyclopentyl]pyrid-2-ylmethyl)-3H-[1,2,3]triazolo[4,5-d]pyrimidin-5-amine]
- pKi [1, 5]: 7.62
- pKi (hA2B receptors; [7]): 5.69
- Binding Selectivity A2b/A2a (hA2B receptors; Table 1): 86
- pKi [3, 8]: 5.62
- Binding Selectivity A1/A2a ([3]; Table 1): 100

Structure (SMILES): Nc1cccc(Cn2nnc3c(-c4ccccc4)nc(N)nc32)c1 [WO 02/055083 Example 151, 3-(3-aminobenzyl)-7-phenyl-3H-[1,2,3]triazolo[4,5-d]pyrimidine-5-amine, reference compound]
- pKi [1, 9]: 8.28
- pKi [2, 9]: 6.08
- Binding Selectivity A3/A2a ([2]; Table 2): 156
- pKi (hA2B receptors; [9]): 6.56
- Binding Selectivity A2b/A2a (hA2B receptors; Table 2): 52
- pKi [3, 9]: 6.99
- Binding Selectivity A1/A2a ([3]; Table 2): 19

Next, values leading:

- pKi [1, 9]: 8.52
- pKi [2, 9]: 5.84
- Binding Selectivity A3/A2a ([2]; Table 2): 487
- pKi (hA2B receptors; [9]): 6.34
- Binding Selectivity A2b/A2a (hA2B receptors; Table 2): 151
- pKi [3, 9]: 6.56
- Binding Selectivity A1/A2a ([3]; Table 2): 92
Structure (SMILES): CC(C)OCc1cccc(Cn2nnc3c(-c4ccco4)nc(N)nc32)n1 [WO 02/055083 Example 247, 7-(2-furyl)-3-(6-isopropoxymethyl-2-pyridylmethyl)-3H-[1,2,3]triazolo[4,5-d]pyrimidine-5-amine, reference compound]

- pKi [1, 9]: 8.54
- pKi [2, 9]: 6.32
- Binding Selectivity A3/A2a ([2]; Table 2): 163
- pKi (hA2B receptors; [9]): 6.42
- Binding Selectivity A2b/A2a (hA2B receptors; Table 2): 131
- pKi [3, 9]: 6.82
- Binding Selectivity A1/A2a ([3]; Table 2): 53
Structure (SMILES): CC(C)COCc1cccc(Cn2nnc3c(-c4ccco4)nc(N)nc32)n1 [WO 02/055083 Example 217, 7-(2-furyl)-3-(6-isobutyloxymethyl-2-pyridylmethyl)-3H-[1,2,3]triazolo[4,5-d]pyrimidine-5-amine, reference compound]

- pKi [1, 9]: 8.89
- pKi [2, 9]: 6.18
- Binding Selectivity A3/A2a ([2]; Table 2): 519
- pKi (hA2B receptors; [9]): 6.64
- Binding Selectivity A2b/A2a (hA2B receptors; Table 2): 183
- pKi [3, 9]: 7.08
- Binding Selectivity A1/A2a ([3]; Table 2): 67
Structure (SMILES): COCc1cccc(Cn2nnc3c(-c4ccc(C)o4)nc(N)nc32)n1 [WO 02/055083 Example 183, 3-(6-methoxymethyl-2-pyridylmethyl)-7-(5-methyl-2-furyl)-3H-[1,2,3]triazolo[4,5-d]pyrimidine-5-amine, reference compound]

- pKi [1, 5]: 7.87
- Binding Selectivity A3/A2a ([2]; Table 1): 634
- pKi (hA2B receptors; [7]): 5.90
- Binding Selectivity A2b/A2a (hA2B receptors; Table 1): 93
- pKi [3, 8]: 6.14
- Binding Selectivity A1/A2a ([3]; Table 1): 54
Structure (SMILES): Nc1nc(-c2ccccc2)c2nnn(Cc3cccc(CO[C@H]4CCOC4)n3)c2n1 [Example 7, S-7-phenyl-3-(6-[tetrahydrofuran-3-yl]oxymethylpyrid-2-ylmethyl)-3H-[1,2,3]triazolo[4,5-d]pyrimidin-5-amine]

- pKi [1, 9]: 8.57
- pKi [2, 9]: 5.77
- Binding Selectivity A3/A2a ([2]; Table 2): 625
- pKi (hA2B receptors; [9]): 6.57
- Binding Selectivity A2b/A2a (hA2B receptors; Table 2): 100
- pKi [3, 9]: 6.23
- Binding Selectivity A1/A2a ([3]; Table 2): 216
Structure (SMILES): Cl.Nc1nc(-c2ccco2)c2nnn(Cc3cccc(CO)n3)c2n1 [WO 02/055083 Example 213, 7-(2-furyl)-3-(6-hydroxymethyl-2-pyridylmethyl)-3H-[1,2,3]triazolo[4,5-d]pyrimidine-5-amine hydrochloride, reference compound]
